The subject of data set [1] is rat dorsal root ganglion (DRG) cells. Put plainly: Rat dorsal root ganglion (DRG) excitability response to electrical field stimulation. In kind it is cell-based. Particulars: adult rat DRG cells. The procedure: Rat Dorsal Root Ganglion Excitability Response of Representative Compounds Dorsal root ganglions (DRGs) were dissected from adult rats. The tissue was processed, and cells were seeded into cell culture plates (48 center wells of one quadrant in 384-well plates) and cultured for 2 days prior to Electrical field stimulation (EFS). To visualize the neuronal excitability response, intracellular Ca^+2 transients were monitored using the Ca^+2 indicator, Ca5. Ca5 was added to the cultures 1 h prior to EFS. Representative compounds of the invention (i.e., test compounds) and reference compound, tetracaine, were added in concentration-response format encompassing six concentrations, performed in duplicate. The highest concentration tested was typically 30 μM with 1 in 3 dilutions generating the subsequent concentrations.
Effects on DRG excitability by the test compounds and standard were evaluated using four EFS protocols as disclosed in Table 2.
Experimental results were performed using two seperate sets of plates using separate test compound and standard dilutions, to provide n=2. In the first set of experiments, compounds were added 24 h prior to EFS to increase the possibility to also detect more long-term compound effects. In the second set of experiments the compounds were added directly prior to EFS. Excitability response to EFS was analyzed as the average fluorescence ratio (peak/baseline) change per well. All plates were evaluated using high content imaging equipment post-EFS, imaging the Ca5 background staining to detect any possibile compound-related toxic effects.
Average response by the reference compound, tetracaine, was 4.05 μM.

Data set [2] in a line: Metabolism by human liver microsomes. In kind it is in vitro ADME. Particulars: human liver microsomes 1 mg/mL protein, 10 μM, in the presence of NADPH, LC-MS/MS. The procedure:
Representative compounds of the invention (i.e., test compounds) and the positive control, 7-ethoxycoumarin, were prepared as stock solutions at 10 mM in DMSO and eventually diluted to 10 μM in the test plate, with an appropriate amount of acetonitrile and tris HCl buffer. Final DMSO and acetonitrile concentrations were […] and 0.5% respectively. NADPH was prepared in tris HCl buffer to a stock of 10 mM. A frozen aliquot of liver microsomes was retrieved from the freezer (−80° C.) and thawed by placing the tube on wet ice. After thawing, the tubes were gently mixed and the required amount, transferred to tris HCl buffer. Test compounds or positive control were pre-incubated, separately, for 10 minutes, with liver microsomes (1 mg/mL protein), at 37° C., in 100 mM Tris HCl at pH 7.5. After preincubation the reaction was started by adding 1 mM NADPH (pre-equilibrated to 30° C.) and the reaction allowed to proceed for 60 minutes. At 60 minutes, a 50 μL aliquot was removed and quenched with 200 uL of acetonitrile containing a mixture of internal standards (Tolbutamide (500 ng/mL) and Telmistartan (500 ng/mL)) and vortexed then centrifuged at 4000 rpm for 10 minutes (Eppendorf 5810R). The supernatant was transferred to a 96 well plate for LC-MS/MS analysis.
An LC-MS/MS method was devised for the test compounds and the control, using a AB Sciex API 4000 system coupled to a NEXAR™ UHPLC (Shimadzu) system. Analytes were separated on a Phenomenex Kinetex C18 column (50×2.1 mm, 5 μm) using a gradient that was appropriate for each compound, at a flow rate of 1 ml/minute, utilizing a mobile phase of 0.1% formic acid in MILLI-Q™ water (A) and 0.1% formic acid in acetonitrile (B). The MS instrument was operated in positive mode (ESI+)/negative (ESI−). The multiple reaction monitoring (MRM) transition for test and control compounds was used for the LC-MS/MS analysis. MRM transitions for control compound 7-ethoxycoumarinm were Quadropole 1: 191.0, Quadropole 3:163.0, dwell time: 75 msec, using curtain gas settings of 5 V, ion-spray voltage of 5500 V, temperature of 50° C. and gas settings for nebulizer and auxiliary set to 30 and 40 psi, respectively. The interface heater was kept on. Entrance potential and collision cell exit potential were varied to tune for a specific compound.
Using a suitable LC-MS/MS method, the percentage of drug remaining at 60 minutes ([…]) was assessed by comparing the average analyte to internal standard area ratio at 60 minutes to the average analyte to internal standard area ratio at 0 time control, as a percentage, from a 5 to 10 μL sample injection.
According to the above assay, the test compounds listed in Table 7 below were active in the Human liver microsome assay at 10 μM and the % of drug remaining after 60 minutes (PDR60), in the presence of NADPH, was assessed by LC-MS/MS. Average PDR60 for the standard compound, 7-ethoxycoumarin was <=65% in the presence of NADPH. Scoring for the test compounds, in the presence of NADPH, was as follows: “A” represents a PDR60 of 81 to 100%, “B” represents a PDR60 of 61 to 80%, “C” represents a PDR60 of 31 to 60% and “D” represents a PDR60 of 0 to 30%.
On the technique in general: Liver microsomes are a subcellular fraction often used to study metabolism.

The mark [3] stands for this setting: Ca5 Ca2+ indicator, six concentrations, highest typically 30 μM, read-out: Scoring: EC50, modulation of rat DRG excitability.

Structures are written as SMILES. Like-named read-outs stand apart in the source and are kept apart here. A value given as a limit tells only on which side of the number the result lay.

On to `C=C1CC[C@H]2[C@H](CN)[C@@H]([C@@]3(C)Cc4cnn(-c5ccc(F)cc5)c4C[C@@H]3CO)CC[C@]12C` [Ia-12, ((5R,6S)-5-((3aS,4R,5S,7aS)-4-(aminomethyl)-7a-methyl-1-methyleneoctahydro-1H-inden-5-yl)-1-(4-fluorophenyl)-5-methyl-4,5,6,7-tetrahydro-1H-indazol-6-yl)methanol], for which, in data set [1] (setting [3]), the EC50 was below 2 µM. Moreover, in data set [2], the “Scoring: % of drug remaining after 60 minutes (PDR60)” value (shortened to “Scoring: % of drug remaining”) is listed as “D (“D” represents a PDR60 of 0 to 30%)”. On to `C=C1CC[C@H]2[C@H](CN)[C@@H]([C@@]3(C)Cc4cn(-c5ccc(OC)cc5)nc4C[C@@H]3CO)CC[C@]12C` [Ia-15, ((5R,6S)-5-((3aS,4R,5S,7aS)-4-(aminomethyl)-7a-methyl-1-methyleneoctahydro-1H-inden-5-yl)-2-(4-methoxyphenyl)-5-methyl-4,5,6,7-tetrahydro-2H-indazol-6-yl)methanol], for which the EC50 in data set [1] (setting [3]) was in the range of 6 to 15 µM. Moreover, the “Scoring: % of drug remaining” value in data set [2] is reported as “B (“B” represents a PDR60 of 61 to 80%)”.

In the case of `C=C1CC[C@H]2[C@H](CN)[C@@H]([C@@]3(C)Cc4cnn(Cc5ccc(F)cc5)c4C[C@@H]3CO)CC[C@]12C` [Ia-18, ((5R,6S)-5-((3aS,4R,5S,7aS)-4-(aminomethyl)-7a-methyl-1-methyleneoctahydro-1H-inden-5-yl)-1-(4-fluorobenzyl)-5-methyl-4,5,6,7-tetrahydro-1H-indazol-6-yl)methanol], the EC50 in data set [1] (setting [3]) is below 2 µM. Turning to `C=C1CC[C@H]2[C@H](CN)[C@@H]([C@@]3(C)Cc4cnn(-c5ccc(C(=O)c6ccccc6)cc5)c4C[C@@H]3CO)CC[C@]12C` [Ia-20, (4-((5R,6S)-5-((3aS,4R,5S,7aS)-4-(aminomethyl)-7a-methyl-1-methyleneoctahydro-1H-inden-5-yl)-6-(hydroxymethyl)-5-methyl-4,5,6,7-tetrahydro-1H-indazol-1-yl)phenyl)(phenyl)methanone], the EC50 in data set [1] (setting [3]) is below 2 µM. Also, the “Scoring: % of drug remaining” value in data set [2] is “B (“B” represents a PDR60 of 61 to 80%)”. Consider `C=C1CC[C@H]2[C@H](CN)[C@@H]([C@@]3(C)Cc4cnn(-c5ccc(F)c(F)c5)c4C[C@@H]3CO)CC[C@]12C` [Ia-22, ((5R,6S)-5-((3aS,4R,5S,7aS)-4-(aminomethyl)-7a-methyl-1-methyleneoctahydro-1H-inden-5-yl)-1-(3,4-difluorophenyl)-5-methyl-4,5,6,7-tetrahydro-1H-indazol-6-yl)methanol], for which, in data set [1] (setting [3]), the EC50 was below 2 µM. The “Scoring: % of drug remaining” value in data set [2] was “D (“D” represents a PDR60 of 0 to 30%)”. In the case of `C=C1CC[C@H]2[C@H](CN)[C@@H]([C@@]3(C)Cc4cnn(-c5ccc(Oc6ccc(F)cc6)cc5)c4C[C@@H]3CO)CC[C@]12C` [Ia-24, ((5R,6S)-5-((3aS,4R,5S,7aS)-4-(aminomethyl)-7a-methyl-1-methyleneoctahydro-1H-inden-5-yl)-1-(4-(4-fluorophenoxy)phenyl)-5-methyl-4,5,6,7-tetrahydro-1H-indazol-6-yl)methanol], the EC50 in data set [1] (setting [3]) was below 2 µM. Also, the “Scoring: % of drug remaining” value in data set [2] is “B (“B” represents a PDR60 of 61 to 80%)”. On to `C=C1CC[C@H]2[C@H](CN)[C@@H]([C@@]3(C)Cc4cnn(-c5ncc(F)cn5)c4C[C@@H]3CO)CC[C@]12C` [Ia-26, ((5R,6S)-5-((3aS,4R,5S,7aS)-4-(aminomethyl)-7a-methyl-1-methyleneoctahydro-1H-inden-5-yl)-1-(5-fluoropyrimidin-2-yl)-5-methyl-4,5,6,7-tetrahydro-1H-indazol-6-yl)methanol], for which the EC50 in data set [1] (setting [3]) was 6 to 15 µM. For the same compound, in data set [2], the “Scoring: % of drug remaining” value is on record as “D (“D” represents a PDR60 of 0 to 30%)”.

Regarding `C=C1CC[C@H]2[C@H](CN)[C@@H]([C@@]3(C)Cc4cn(-c5ncc(F)cn5)nc4C[C@@H]3CO)CC[C@]12C` [Ia-27, ((5R,6S)-5-((3aS,4R,5S,7aS)-4-(aminomethyl)-7a-methyl-1-methyleneoctahydro-1H-inden-5-yl)-2-(5-fluoropyrimidin-2-yl)-5-methyl-4,5,6,7-tetrahydro-2H-indazol-6-yl)methanol], in data set [1] (setting [3]), the EC50 lay within 6 to 15 µM. The “Scoring: % of drug remaining” value in data set [2] is on record as “C (“C” represents a PDR60 of 31 to 60%)”. Turning to `C=C1CC[C@H]2[C@H](CN)[C@@H]([C@@]3(C)Cc4cnn(-c5ccc(Oc6ccccc6)cc5)c4C[C@@H]3CO)CC[C@]12C` [Ia-28, ((5R,6S)-5-((3aS,4R,5S,7aS)-4-(aminomethyl)-7a-methyl-1-methyleneoctahydro-1H-inden-5-yl)-5-methyl-1-(4-phenoxyphenyl)-4,5,6,7-tetrahydro-1H-indazol-6-yl)methanol], the EC50 in data set [1] (setting [3]) is below 2 µM. For the same compound, the “Scoring: % of drug remaining” value in data set [2] is “B (“B” represents a PDR60 of 61 to 80%)”. With `C=C1CC[C@H]2[C@H](CN)[C@@H]([C@@]3(C)Cc4cn(-c5ccc(Oc6ccccc6)cc5)nc4C[C@@H]3CO)CC[C@]12C` [Ia-29, ((5R,6S)-5-((3aS,4R,5S,7aS)-4-(aminomethyl)-7a-methyl-1-methyleneoctahydro-1H-inden-5-yl)-5-methyl-2-(4-phenoxyphenyl)-4,5,6,7-tetrahydro-2H-indazol-6-yl)methanol], the EC50 in data set [1] (setting [3]) was below 2 µM. The “Scoring: % of drug remaining” value in data set [2] was “C (“C” represents a PDR60 of 31 to 60%)”. Turning to `C=C1CC[C@H]2[C@H](CN)[C@@H]([C@@]3(C)Cc4cnn(-c5ccc(Oc6ccc(C(=O)O)cc6)cc5)c4C[C@@H]3CO)CC[C@]12C` [Ia-36, 4-(4-((5R,6S)-5-((3aS,4R,5S,7aS)-4-(aminomethyl)-7a-methyl-1-methyleneoctahydro-1H-inden-5-yl)-6-(hydroxymethyl)-5-methyl-4,5,6,7-tetrahydro-1H-indazol-1-yl)phenoxy)benzoic acid], the EC50 in data set [1] (setting [3]) is above 15 µM. The “Scoring: % of drug remaining” value in data set [2] is on record as “A (“A” represents a PDR60 of 81 to 100%)”. As for `C[C@H]1CC[C@H]2[C@H](CN)[C@@H]([C@@]3(C)Cc4cnn(-c5ccc(F)cc5)c4C[C@@H]3CO)CC[C@]12C` [Ia-47, ((5R,6S)-5-((1S,3aS,4S,5S,7aR)-4-(aminomethyl)-1,7a-dimethyloctahydro-1H-inden-5-yl)-1-(4-fluorophenyl)-5-methyl-4,5,6,7-tetrahydro-1H-indazol-6-yl)methanol], in data set [1] (setting [3]), the EC50 is below 2 µM.

In the case of `COc1ccc(Cn2cc3c(n2)C[C@H](CO)[C@@](C)([C@H]2CC[C@]4(C)[C@@H](C)CC[C@H]4[C@@H]2CN)C3)cc1` [Ia-52, ((5R,6S)-5-((1S,3aS,4S,5S,7aR)-4-(aminomethyl)-1,7a-dimethyloctahydro-1H-inden-5-yl)-2-(4-methoxybenzyl)-5-methyl-4,5,6,7-tetrahydro-2H-indazol-6-yl)methanol], the EC50 in data set [1] (setting [3]) is below 2 µM. In data set [2], the “Scoring: % of drug remaining” value is “A (“A” represents a PDR60 of 81 to 100%)”.

Take `CCCCNc1ccc(C(=O)OCCN(C)C)cc1` [tetracaine, reference compound]: the EC50 in data set [1] (reference compound, read-out: Average response (rat DRG excitability)) turned out to be 4.05 µM.

The values are drawn from US11773108B2, “Indene derivatives useful in treating pain and inflammation” (TARO PHARMACEUTICALS INC., priority 2018, dated 2023).
